Positions count from the first letter of the chain named.

One assay deals with C57B1/6J mice. In words: Treatment of C57Bl/6J mice fed 45% or 10% lipid diet (diet-induced obesity). In kind it is in vivo, mouse. Particulars: 1,200 mg PLX5622/kg of food. The source says: (§1) Mice and diets. All experiments on mice were realized in accordance with an animal license issued by the Institutional Review Board (IACUC 15-04-006) from MSKCC. All mice were maintained under SPF conditions. C57B1/6J male mice were purchased from Jackson laboratories. Rosa26^LSL-Tomato (Stock No: 007908), Rosa26^LSL-^YFP (Stock No:006148), Rosa26^mTmG (Stock No: 007576) and Lepr^-/-(db/db) (herein referred to as Lepr^-/-; Stock No: 000697) mice were purchased from Jackson laboratories and bred in house. Csf1r^Cre, Csf1r^MeriCreMer, and Csf1r^fl/fl mice were obtained from J W. Pollard (The University of Edinburgh), Cx3cr1^GFP/+ mice were obtained from Drs. Dan Littman (NYU Skirball institute), Flt3^Cre mice were obtained from Thomas Boehm (Max Planck institute) and Tnfrsf11a^Cre mice were obtained from Y. Kobayashi (Matsumoto Dental University). Ccr2^-/- mice were obtained from IF. Charro (UCSF) Csf1r^-/- mice were backcrossed to FVB/NJ for more than 10 generations. Mice were fed ad libitum a rodent irradiated diet containing 45% kcal from lipids (Research Diets Inc., reference D12451i) or 10% kcal from lipids (Research Diets Inc., reference D12450hi) for 8 weeks. In mice supplemented with the CSF-1R inhibitor PLX5622 (Plexxikon), the aforementioned diets were impregnated with 1200 mg of inhibitor per kg of food. In the experiment named 45%>10% the mice were fed 45% lipid diet for 8 weeks then 10% lipid diet for 2 weeks and compared to mice fed 10% lipid diet for 10 weeks. Mice were weighed weekly. Tnfrsf11a^Cre; Csflr^f/f and Csf1r^Cre; Csf1r^f/f mice are osteopetrotic and as such lack teeth. To prevent confounding systemic effects due to nutritional intake problems, the Tnfrsf11a^Cre; Csf1r^f/f Csf1r^Cre; Csf1r^f/f and control littermates were fed a nutritionally fortified water gel. The nutritional gels were replaced every 12 hours.
Glucose and insulin tolerance tests were performed as described; in brief, for the glucose tolerance test, the mice were fasted for 4h before experiment, but had water ad libitum. The weight and glycaemia were measured, and the mice were injected intraperitoneally with 2 g glucose (Thermo Scientific) per kg of body weight. Following the glucose injection, glycemia was measured every 30 min for 2 hours. For the insulin tolerance test, the mice were fasted for 4h before experiment, but had water ad libitum. The weight and the glycaemia were measured, and the mice were injected with 0.25U insulin (Sigma) per kg of body weight. Following the glucose injection, glycemia was measured every 30 min for 2 hours. To measure the glycaemia, the tail of the animals was pricked with a 27G needle and a drop of blood was placed on the glucometer (ACCU-CHECK AVIVA, Roche). […]
(§2) Metabolic analysis of Leptin receptor deficient mice, PLX5622-treated mice, anti-PDGFcc treated mice, and control C57Bl/6J mice. Animals were individually housed in a temperature controlled Promethion Metabolic Screening System (Sable Systems International, NV). Food intake was acquired gravimetrically and ambulatory activity was acquired using a laser matrix. Mice were acclimated to this environment on a 12 hr light/dark cycle for 48 hr before the indicated length of recording (24 hr to 120 hr) period began. Fecal bomb calorimetry was performed on feces collected during the last day of metabolic cage recording period, dehydrated in an oven at 60C for 48 hr, then combusted in technical duplicates with a Parr 6725 Semimicro Calorimeter to determine gross caloric intake.
Infrared imaging of mice. Infrared images were taken on the last day of metabolic analysis using a FLIR T430sc Infrared Camera. These images were into RAW files and then analyzed in AMIDE. A box was drawn over region of interest (ROI); interscapular (70×30), inguinal (35×35) and dorsal. The 10% top warmest pixels were used for interscapular and inguinal quantifications. The 20% top warmest pixels were used for dorsal quantifications. […]

A further assay concerns Lepr^-/- (db/db) mice. In words: PLX5622 treatment of leptin-receptor deficient mice that spontaneously develop obesity. In kind it is in vivo, mouse.
Excerpt: as §1, §2
Triglyceride Measurement for Mice. To measure triglycerides, ~ 100 mg of mouse liver was homogenized in 100 µl of PBS + 0.05% Tween 20. Triglyceride was then measured using the free glycerol reagent (Sigma; F6428) as described in the manufacturer’s protocol and normalized to the liver weight.
To quantify the size of the adipocytes, the software image J was used. Regions of interest (ROI) were drawn following the cellular membrane of the adipocytes and the surface of the ROI was determined by the software. 50 adipocytes were measured per field of view of the eWAT. Adipocytes were measured on 3 fields of view, taken with N-Achroplan 10x/0.25 objective. Crown-like structures (CLS) were quantified on the same fields of view. Crown like structures were defined as microscopic foci of dying adipocytes surrounded by macrophages as visualized by H&E staining.

Assay [1] concerns epididymal fat pad explants. Description: eWAT (epididymal fat pad) explants cultured ex vivo, lipid storage by adipocytes. Format: cell-based, mouse. Particulars: Tnfrsf11a^Cre; Csf1r^f/f fat pads; 100 ng/ml PDGFcc, 10 ng/ml VEGFb or 10 ng/ml IGF1 on days 0, 3, 6. The method, then:
Whole Mount Imaging and Cytology of Sorted Macrophages. For whole mount immunofluorescence imaging, after anesthesia and blood collection by cardiac puncture, the mice were perfused with 10 mL PBS at room temperature. Approximately 3 mm^3 pieces of the tissue were incubated in 4% paraformaldehyde (PFA) (Electron Microscopy) diluted in PBS for 30 min at room temperature with agitation, then rinsed with PBS and stained with directly conjugated antibodies for 30 minutes. Then the samples were rinsed with PBS 3× and mounted on cavity slides (Sigma) with Fluoromount G (eBioscience). Approximately 50 µm thick Z-stack and tile scan were acquired with LSM880 Zeiss microscope with 40x/1.3 (oil). Image analysis was performed using Imaris (Bitplane) software.
In Vitro Epididymal Adipose Tissue Explants. Epididymal fat pads of 4-day-old Tnfrsf11a^Cre+Csf1r^fl/fl mice and littermates were dissected and incubated in RPMI with 10% heat de-activated FBS at 37° C. for 14 days. Fresh medium was added to the explants on day 7. At the termination of the experiment, the explants were fixed in 4% PFA for 30 minutes at room temperature with agitation and then rinsed in PBS and permeabilized for 15 minutes in PBS + 0.03% Triton. Subsequently, the explants were blocked with 2% BSA and stained with directly conjugated antibodies. To remove macrophages from wt epididymal fat pads in vitro, 15 µM of the CSF1R inhibitor PLX5622 was added to explants on day 0 and 7 following the addition of fresh medium. For the in vitro rescue experiments, epididymal fat pads of Tnfrsf11a^Cre; Csf1r^fl/fl mice and littermates as well as […] treated fat pads were supplemented with 100 ng/ml of recombinant mouse PDGFcc (R&D systems), 10 ng/ml of recombinant mouse VEGFb (R&D systems), or 10 ng/ml of recombinant mouse IGF1 (R&D systems) three times on days 0, 3, and 6.

For another assay, the target named is PDGFRA/A homodimers (Homo sapiens, UniProt P16234). Particulars: Gilbertson et al. 2001; cited from earlier work.
PDGFRA/A homodimers, sequence (P16234 24-1089, species assumed): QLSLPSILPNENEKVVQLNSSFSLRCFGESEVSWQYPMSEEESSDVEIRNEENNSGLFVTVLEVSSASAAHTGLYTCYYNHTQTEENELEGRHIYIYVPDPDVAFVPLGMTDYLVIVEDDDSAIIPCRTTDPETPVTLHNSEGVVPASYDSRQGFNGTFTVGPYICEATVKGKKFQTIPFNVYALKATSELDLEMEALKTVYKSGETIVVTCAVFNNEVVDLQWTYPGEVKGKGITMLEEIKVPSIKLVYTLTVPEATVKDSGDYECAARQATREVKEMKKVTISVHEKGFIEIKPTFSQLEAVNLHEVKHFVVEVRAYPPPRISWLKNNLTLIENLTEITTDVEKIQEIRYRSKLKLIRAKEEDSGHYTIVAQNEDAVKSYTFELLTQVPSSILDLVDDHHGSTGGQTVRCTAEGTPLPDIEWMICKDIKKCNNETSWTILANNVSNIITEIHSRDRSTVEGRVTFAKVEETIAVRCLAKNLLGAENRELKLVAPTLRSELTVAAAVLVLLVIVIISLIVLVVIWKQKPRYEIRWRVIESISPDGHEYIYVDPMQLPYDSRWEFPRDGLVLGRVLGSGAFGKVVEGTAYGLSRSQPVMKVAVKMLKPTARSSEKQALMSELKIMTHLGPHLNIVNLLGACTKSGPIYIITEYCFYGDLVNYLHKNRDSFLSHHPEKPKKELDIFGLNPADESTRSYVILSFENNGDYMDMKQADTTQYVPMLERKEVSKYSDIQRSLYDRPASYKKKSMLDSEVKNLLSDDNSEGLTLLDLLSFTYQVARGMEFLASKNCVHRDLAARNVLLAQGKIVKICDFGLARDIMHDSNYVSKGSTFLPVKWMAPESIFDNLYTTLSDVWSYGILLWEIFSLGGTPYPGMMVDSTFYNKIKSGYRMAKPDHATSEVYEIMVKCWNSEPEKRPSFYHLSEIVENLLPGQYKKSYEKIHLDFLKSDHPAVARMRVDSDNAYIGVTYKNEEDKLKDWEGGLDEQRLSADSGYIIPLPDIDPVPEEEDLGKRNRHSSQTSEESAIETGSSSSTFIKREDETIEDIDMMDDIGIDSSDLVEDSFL
Another assay has as its target PDGFRB/B homodimers (Homo sapiens, UniProt P09619). As to conditions: Gilbertson et al. 2001; cited from earlier work.
Where [2] appears, read: 10% lipid diet + PLX5622 for 8 weeks.

PDGFRB/B homodimers, sequence (P09619 33-1106, species assumed): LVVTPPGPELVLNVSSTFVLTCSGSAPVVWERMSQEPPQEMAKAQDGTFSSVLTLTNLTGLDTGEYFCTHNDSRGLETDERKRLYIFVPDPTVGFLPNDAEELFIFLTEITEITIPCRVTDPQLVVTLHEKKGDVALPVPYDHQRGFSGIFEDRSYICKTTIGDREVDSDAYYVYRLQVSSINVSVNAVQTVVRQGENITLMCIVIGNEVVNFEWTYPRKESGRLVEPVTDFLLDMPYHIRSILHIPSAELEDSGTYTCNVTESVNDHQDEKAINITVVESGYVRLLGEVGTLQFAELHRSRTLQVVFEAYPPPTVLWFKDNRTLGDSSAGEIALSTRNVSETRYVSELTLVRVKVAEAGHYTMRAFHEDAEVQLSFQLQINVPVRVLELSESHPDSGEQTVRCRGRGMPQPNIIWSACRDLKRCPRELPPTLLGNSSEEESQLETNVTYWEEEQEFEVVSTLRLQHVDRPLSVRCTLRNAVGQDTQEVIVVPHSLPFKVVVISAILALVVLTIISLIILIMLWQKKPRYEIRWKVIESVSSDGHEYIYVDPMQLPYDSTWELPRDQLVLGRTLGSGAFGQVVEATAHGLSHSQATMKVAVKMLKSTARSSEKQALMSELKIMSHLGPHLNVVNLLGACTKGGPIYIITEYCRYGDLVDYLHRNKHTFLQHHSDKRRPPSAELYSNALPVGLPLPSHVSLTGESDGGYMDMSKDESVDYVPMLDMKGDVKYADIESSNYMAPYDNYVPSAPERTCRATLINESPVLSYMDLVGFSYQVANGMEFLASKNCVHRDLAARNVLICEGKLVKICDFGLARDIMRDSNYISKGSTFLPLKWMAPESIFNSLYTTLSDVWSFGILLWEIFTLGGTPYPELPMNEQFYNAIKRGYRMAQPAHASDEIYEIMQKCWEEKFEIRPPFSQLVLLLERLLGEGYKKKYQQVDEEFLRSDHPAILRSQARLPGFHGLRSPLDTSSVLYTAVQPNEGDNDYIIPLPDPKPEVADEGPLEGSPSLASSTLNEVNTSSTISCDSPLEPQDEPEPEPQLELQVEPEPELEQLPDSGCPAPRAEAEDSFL

For the molecule `COc1ncc(F)cc1CNc1ccc(Cc2c[nH]c3ncc(C)cc23)c(F)n1` [PLX5622], in the assay with C57B1/6J mice, the “Dio2 expression in the iBAT” value is reported as “increased”; the “F4/80+ Tim4- and Tim4+ macrophages” value was “lacked both F4/80^+ Tim4^- and Tim4^+ macrophages”; the “Ucpl expression in the iBAT” value is on record as “increased”. Moreover, in the assay on C57B1/6J mice (45% lipid diet), the TNF/IL1 production result is reported as “protected against”, the hepatic steatosis result is “protected against” and the metabolic syndrome result is reported as “protected against”. Besides, in the assay with C57B1/6J mice (high fat diet), the “Pdgfcc expression in fat pads” value was “did not increase”; the adipocyte hypertrophy entry is recorded as “did not develop adipocyte hypertrophy”; the “visceral and subcutaneous white adipose tissue mass” value is given as “did not increase”; the weight gain result is recorded as “gained less weight than controls”. Further, in the assay on Lepr^-/- (db/db) mice (10% lipid diet + PLX5622), the “Pdgfc expression in adipose tissue” value is “decreased”, the adipocyte size result is recorded as “decreased” and the liver inflammation result is on record as “decreased”. In the assay on Lepr^-/- (db/db) mice (setting [2]), the adipose tissue mass result was “decreased” and the weight gain result is “decreased”. Also, in the assay on Lepr^-/- (db/db) mice (iBAT, PLX5622 in diet), the Dio2 expression result was “increased” and the Ucpl expression result was “increased”.
As to “IGF1: recombinant mouse IGF1 (R&D systems)”, in assay [1], the “rescue of bodipy staining (lipid storage)” value (shortened to “rescue of bodipy staining”) is “not”.

B1: PDGFcc: mature PDGF-CC protein, growth factor domain dimer released by removal of the CUB domain; exemplary SEQ ID NO: 2 (protein, listed as Homo sapiens)
chain: VVDLNLLTEEVRLYSCTPRNFSVSIREELKRTDTIFWPGCLLVKRCGGNCACCLHNCNECQCVPSKVTKKYHEVLQLRPKTGVRGLHKSLTDVALEHHEECDCVCRGSTGG
modifications: homodimer
As for B1, in the assay with PDGFRA/A homodimers, the “binding to PDGFRA/A homodimers” value is given as “high affinity”. Besides, the “interaction with PDGFRB/B homodimers” value with PDGFRB/B homodimers is reported as “fails to interact”.

B2: recombinant PDGFcc: Recombinant mouse PDGFcc, R&D systems Cat# 1447-PC-025/CF, active/cleaved form, SEQ ID NO: 3 (protein, listed as Mus sp.)
chain: B1 chain with D3N, T8K, R12K, S65R, R84K, S108N, T109A
Consider B2, for which the “rescue of bodipy staining” value in assay [1] is on record as “rescues bodipy staining to control levels”.

B3: VEGFb: recombinant mouse VEGFb (R&D systems) (protein, UniProt P49766 22-207, looked up)
Vascular endothelial growth …: PVSQFDGPSHQKKVVPWIDVYARATCQPREVVVPLSMELMGNVVKQLVPSCVTVQRCGGCCPDDGLECVPTGQHQVRMQILMIQYPSSQLGEMSLEEHSQCECRPKKKESAVKPDRVAIPHHRPQPRSVPGWDSTPGASSPADIIHPTPAPGSSARLAPSAVNALTPGPAAAAADAAASSIAKGGA
For the molecule B3, the “rescue of bodipy staining” value in assay [1] is listed as “can also rescue lipid storage”.
